# Data taken from patent US5770573A, “CS-1 peptidomimetics, compositions and methods of using the same” (Cytel Corporation, priority 1995, dated 1998).
# Numbered stars: 1 amine (or outer) side, 2 acyl side, 3 side chain; on linkers, the order of the positions; unused ones are H or OH. Square brackets hold non-standard residues; d marks the D form. Peptide text beside a SMILES is read from it. * marks the point of attachment. NHOctadecyl = CCCCCCCCCCCCCCCCCCN*; Cha = N[C@@H](CC1CCCCC1)C(=O)O; Isonicotinoyl = O=C(c1ccncc1)*; Nicotinoyl = O=C(c1cccnc1)*; Morpholide = C1CN(*)CCO1; Nle = CCCC[C@H](N)C(=O)O; Nva = CCC[C@H](N)C(=O)O; X7 = O=C(CO*)OCc1ccccc1; PhAc = O=C(Cc1ccccc1)*; X18 = O=C(c1cn[nH]c1)*; ODecyl = CCCCCCCCCCO*; CO = O=C([*:1])[*:2]; NHPh = c1ccc(N*)cc1; Ahx = NCCCCCC(=O)O; OtBu = CC(C)(C)O*; tBu = CC(C)(C)*
# Target: VLA-4 (Homo sapiens, UniProt P05556+P13612)
# Sequence (P13612 34-1032): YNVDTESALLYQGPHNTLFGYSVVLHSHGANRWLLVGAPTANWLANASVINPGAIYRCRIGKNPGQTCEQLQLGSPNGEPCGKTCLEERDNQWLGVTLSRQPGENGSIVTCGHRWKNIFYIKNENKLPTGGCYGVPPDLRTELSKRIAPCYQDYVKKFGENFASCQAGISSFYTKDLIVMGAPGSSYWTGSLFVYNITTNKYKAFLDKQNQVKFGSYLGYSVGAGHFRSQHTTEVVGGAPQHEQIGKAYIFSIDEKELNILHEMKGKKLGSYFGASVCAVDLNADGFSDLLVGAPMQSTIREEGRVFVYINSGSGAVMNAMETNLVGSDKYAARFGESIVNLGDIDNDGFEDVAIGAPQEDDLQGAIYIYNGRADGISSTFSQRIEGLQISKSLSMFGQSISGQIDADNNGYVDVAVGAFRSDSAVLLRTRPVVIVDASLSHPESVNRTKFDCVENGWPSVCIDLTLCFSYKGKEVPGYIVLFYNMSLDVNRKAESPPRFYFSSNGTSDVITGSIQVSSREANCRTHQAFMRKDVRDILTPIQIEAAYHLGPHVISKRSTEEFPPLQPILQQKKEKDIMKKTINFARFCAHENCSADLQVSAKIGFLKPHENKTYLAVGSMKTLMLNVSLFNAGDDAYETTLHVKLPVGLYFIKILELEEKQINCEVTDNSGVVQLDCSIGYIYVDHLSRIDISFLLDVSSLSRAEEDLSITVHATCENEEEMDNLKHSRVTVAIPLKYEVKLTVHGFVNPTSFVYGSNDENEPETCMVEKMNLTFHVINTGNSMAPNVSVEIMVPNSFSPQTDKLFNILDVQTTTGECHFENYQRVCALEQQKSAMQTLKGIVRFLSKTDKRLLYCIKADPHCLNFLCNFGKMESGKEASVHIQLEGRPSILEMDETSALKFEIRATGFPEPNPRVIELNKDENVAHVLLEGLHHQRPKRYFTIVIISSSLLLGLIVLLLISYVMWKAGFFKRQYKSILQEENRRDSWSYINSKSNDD
# Sequence (P05556 21-798): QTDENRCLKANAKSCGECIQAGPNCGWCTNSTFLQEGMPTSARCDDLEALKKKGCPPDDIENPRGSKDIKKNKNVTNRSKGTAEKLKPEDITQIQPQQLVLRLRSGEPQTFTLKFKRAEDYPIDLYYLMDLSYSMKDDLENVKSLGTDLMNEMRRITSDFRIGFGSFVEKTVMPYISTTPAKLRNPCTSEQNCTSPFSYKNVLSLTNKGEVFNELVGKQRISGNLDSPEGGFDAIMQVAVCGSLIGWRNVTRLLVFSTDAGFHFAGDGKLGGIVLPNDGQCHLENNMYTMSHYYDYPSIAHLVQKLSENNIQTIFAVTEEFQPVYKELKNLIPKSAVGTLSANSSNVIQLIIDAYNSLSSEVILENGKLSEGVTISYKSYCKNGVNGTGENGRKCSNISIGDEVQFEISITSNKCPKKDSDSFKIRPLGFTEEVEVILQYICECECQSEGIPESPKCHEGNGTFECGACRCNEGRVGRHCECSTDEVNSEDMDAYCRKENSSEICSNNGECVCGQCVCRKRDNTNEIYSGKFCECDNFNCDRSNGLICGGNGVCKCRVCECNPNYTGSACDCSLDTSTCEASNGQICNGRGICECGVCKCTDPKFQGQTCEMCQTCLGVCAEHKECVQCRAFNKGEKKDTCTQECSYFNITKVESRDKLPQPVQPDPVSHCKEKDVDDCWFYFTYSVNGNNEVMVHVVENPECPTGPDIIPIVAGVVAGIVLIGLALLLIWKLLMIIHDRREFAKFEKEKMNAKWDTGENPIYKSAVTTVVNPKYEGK
# Assay: In vitro binding inhibition of 51Cr-labeled Jurkat cells to solid phase-bound CS-1 compound (SEQ ID NO:1)
# Type: cell-based
# Set-up: inflammatory cells that contain the VLA-4 receptor [Jurkat cells; host or cells: Jurkat (human T lymphoblastic line)
# Details: not given
# Protocol: Binding inhibition is measured here as a concentration of compound that inhibits one-half the binding between a standard number of Jurkat cells and a standard amount of CS-1 compound bound to the surface of a microtiter plate well. Those concentrations are conveniently expressed as IC50 values, smaller numbers indicating a lower concentration required to inhibit 50 percent binding and therefore greater potency. Further specifics of this assay are provided hereinafter.
# Jurkat cells (ATCC TIB 152), a human T lymphoblastic line, labeled with ^51 chromium were used to assay in vitro binding inhibition provided by various compounds discussed herein.
# The plates were prepared as follows: The 25-mer CS-1 compound (SEQ ID NO:1) dissolved at 0.5-1 μg/ml in a buffer of 0.1M NaHCO3 at pH 9.5 that also contained 10 μg/ml of bovine serum albumin (BSA) or a conjugate of the CS-1 compound linked to […] (CS-1-OVA) dissolved at 1-2.5 μg/ml in the same buffer was used as the substrate. Each well of the microtiter plates was coated with 50 μl of substrate or buffer alone for controls. The wells were permitted to dry out completely and were then rinsed twice with PBS at pH 7.4. Non-specific binding sites of each well were then blocked using 200 μl per well of RPMI/1 percent BSA for two hours at room temperature.
# Jurkat cells (3-5×10^6 cells) were placed into a 15 ml Falcon™ round-bottom tube with a cap. The tube was centrifuged, and the extra medium was then removed.
# Two hundred microliters of a ^51 Cr labeling solution were added to the centrifuged cells and maintained in contact with the cells for 90-120 minutes in a warm room. […] Longer contact times provide a greater amount of labeling but lower cell viability.
# The labeled cells are washed with (i) complete medium, (ii) 1 mM EDTA/PBS and then (iii) RPM1/1 percent BSA free of serum components. The cells are centrifuged after each washing. The cells are finally resuspended in serum-free RPMI/1 percent BSA at a concentration of 1×10^6 viable cells/ml, which provides a concentration that is diluted by one-half in the assay.
# Inhibitor compounds are prepared as stock solutions at 20 mg/ml in DMSO in 1.5 ml cryogenic screwcap vials, and were stored at -70° C. Using Flow™ round-bottom or V-bottom microtiter plates, the inhibitor compounds were prepared at twice the assay concentration in RPMI/1 percent BSA at 60 μl/well.
# Four initial dilutions were typically used.
# The ^51 Cr-labeled cells ([…] at 60 μl/well) were then admixed with the diluted compound solutions. The admixtures were maintained at room temperature (about 22° C.) for 30 minutes.
# One hundred microliters of each inhibitor compound/cell admixture were transferred to the substrate-coated wells. This was done in triplicate for each dilution. The resulting plates were incubated for 30 minutes at 37° C. and then washed gently three times with RPMI/1 percent BSA at 200 μl/well. Binding was observed microscopically, particularly after the second wash.
# The bound cells were then lysed by the addition of a 0.5 percent solution of sodium dodecylsulfate in water at 100 μl/well. The resulting solutions were then processed for counting and calculation of IC50 values following usual procedures.
# The data of Table 1 are normalized to the binding of SEQ ID NO: 3. […] Multiple assays for the same compound were averaged.
row,Relative Potency,SMILES
1,.13,CC[C@H](C)[C@H](N)C(=O)N[C@@H](CC(C)C)C(=O)N[C@@H](CC(=O)O)C(=O)N[C@@H](CC1CCCCC1)C(=O)N1CCC[C@H]1C(N)=O [926.14] (H-ILD[Cha]P-NH2)
2,.34,CCC[C@H](NC(=O)[C@H](CC(=O)O)NC(=O)[C@H](CC(C)C)NC(=O)[C@@H](N)[C@@H](C)CC)C(=O)N1CCC[C@H]1C(N)=O [926.16] (H-ILD[Nva]P-NH2)
3,2.61,CC(C)[C@H](NC(=O)[C@H](CC(=O)O)NC(=O)[C@H](CC1CCCCC1)NC(=O)[C@@H](N)Cc1ccccc1)C(=O)N1CCC[C@@H]1C(N)=O [896.33] (H-F[Cha]DV[dP]-NH2)
4,1.22,CC(C)CN1C(=O)C(NC(=O)N[C@@H](CC(=O)O)C(=O)N[C@@H](Cc2ccccc2)C(=O)N2CCC[C@@H]2C(N)=O)Cc2ccccc21 (some centres unmarked) [1014.01]
5,1.55,CC[C@H](C)[C@H](N)C(=O)N[C@@H](CC(C)C)C(=O)N[C@@H](CC(=O)O)C(=O)N[C@H](C(=O)N1CCC[C@H]1C(N)=O)C(C)C [886.03]
6,.41,CCCC[C@H](NC(=O)[C@@H](N)[C@@H](C)CC)C(=O)N[C@@H](CC(=O)O)C(=O)N[C@H](C(=O)N1CCC[C@H]1C(N)=O)C(C)C [926.09] (H-I[Nle]DVP-NH2)
7,228,CC(C)C[C@H](NC(=O)c1ccncc1)C(=O)N[C@@H](CC(=O)O)C(=O)N[C@@H](Cc1ccccc1)C(=O)N1CCC[C@@H]1C(N)=O [951.20] (Isonicotinoyl-LDF[dP]-NH2)
8,105,CC(C)C[C@H](NC(=O)c1cccnc1)C(=O)N[C@@H](CC(=O)O)C(=O)N[C@@H](Cc1ccccc1)C(=O)N1CCC[C@@H]1C(N)=O [896.55] (Nicotinoyl-LDF[dP]-NH2)
9,9.08,CC(C)C[C@H](NC(=O)C1CCCCC1)C(=O)N[C@@H](CC(=O)O)C(=O)N[C@H](C(=O)N1CCC[C@@H]1C(N)=O)C(C)C [896.49]
10,28.2,CC(C)C[C@H](NC(=O)c1cn[nH]c1)C(=O)N[C@@H](CC(=O)O)C(=O)N[C@@H](Cc1ccccc1)C(=O)N1CCC[C@@H]1C(N)=O [951.03] (X18-LDF[dP]-NH2)
11,110,CC(C)C[C@@H](C(=O)N[C@@H](CC(=O)O)C(=O)N[C@H](C(=O)N1CCC[C@@H]1C(N)=O)C(C)C)N1C(=O)c2ccccc2C1=O [896.51]

row,SMILES,Relative Potency
1,CC(C)C[C@H](NC(=O)Nc1ccccc1)C(=O)N[C@@H](CC(=O)O)C(=O)N[C@@H](Cc1ccccc1)C(=O)N1CCC[C@@H]1C(N)=O [896.62] ({NHPh-CO}-LDF[dP]-NH2),257
2,CC(C)CC(C(=O)NCc1ccccc1)C(=O)N[C@@H](CC(=O)O)C(=O)N[C@@H](Cc1ccccc1)C(=O)N1CCCCC1 (some centres unmarked) [1034.02],0
3,CC(C)COC(=O)N[C@@H](CC(=O)O)C(=O)N[C@@H](Cc1ccccc1)C(=O)N1CCCCC1 [1027.04],0
4,CC(C)C[C@@H](C(=O)N[C@@H](CC(=O)O)C(=O)N[C@@H](Cc1ccccc1)C(=O)N1CCCCC1)N1C(=O)N[C@@H](c2ccccc2)C1=O [1047.02],3.13

# Same assay, conditions: binding inhibition potency relative to standard compound of SEQ ID NO:3 = 1 (normalized IC50); about one-tenth or less assigned zero
row,SMILES,Relative Potency
1,CC(C)C[C@H](NC(=O)Cc1ccccc1)C(=O)N[C@@H](CC(=O)O)C(=O)N[C@@H](Cc1ccccc1)C(=O)N1CCNCC1 [1051.02],507
2,CC(C)C[C@H](NC(=O)Cc1ccccc1)C(=O)N[C@@H](CC(=O)O)C(=O)N[C@@H](Cc1ccc(OC(C)(C)C)cc1)C(=O)OC(C)(C)C [1040.01] (PhAc-Leu-Asp-Tyr(tBu)-OtBu),2.66
3,CC(C)C[C@H](NC(=O)Cc1ccccc1)C(=O)N[C@@H](CC(=O)O)C(=O)N[C@@H](CO)C(=O)N1CCC[C@@H]1C(N)=O [1042.23] (PhAc-LDS[dP]-NH2),33.2
4,CC(C)C[C@H](NC(=O)Cc1ccccc1)C(=O)N[C@@H](CC(=O)O)C(=O)N[C@@H]1CCCCNC1=O [1043.01],17.2
5,CC(C)C[C@H](NC(=O)Cc1ccccc1)C(=O)N[C@@H](CC(=O)O)C(=O)N1C(=O)N(Cc2ccccc2)C(=O)[C@@H]1Cc1ccccc1 [1047.08],.38
6,CC(C)C[C@H](NC(=O)Cc1ccccc1)C(=O)NC(C(=O)O)C(=O)N[C@@H](Cc1ccccc1)C(=O)N1CCCCC1 (some centres unmarked) [1026.02],0
7,CC(C)C[C@H](NC(=O)Cc1ccccc1)C(=O)NC(CC(=O)O)(CC(=O)O)C(=O)N[C@@H](Cc1ccccc1)C(=O)N1CCCCC1 [1026.01],0
8,CC(C)C[C@H](NC(=O)Cc1ccccc1)C(=O)N[C@@H](CC(=O)O)C(=O)NN1Cc2ccccc2NC1=O [997.17],1.35
9,CC(C)C[C@H](NC(=O)Cc1ccccc1)C(=O)N[C@@H](CC(=O)O)C(=O)N[C@@H](Cc1ccccc1)C(=O)N1C[C@@H](O)[C@@H](O)C1 [1070.01],194
10,CC(C)C[C@H](NC(=O)Cc1ccccc1)C(=O)N[C@@H](CC(=O)O)C(=O)N[C@@H](Cc1ccccc1)C(=O)NN1CCOCC1 [1111.10],98.9
11,CC(C)C[C@H](NC(=O)Cc1ccccc1)C(=O)N[C@@H](CC(=O)O)C(=O)N[C@H](C(=O)N1CCC[C@@H]1C(N)=O)C(C)C [896.39],47.5
12,COc1ccccc1N1CC[C@H](NC(=O)[C@H](CC(=O)O)NC(=O)[C@H](CC(C)C)NC(=O)Cc2ccccc2)C1=O [1057.04],3.13
13,NC(=O)[C@H]1CCCN1C(=O)[C@H](Cc1ccccc1)NC(=O)[C@H](CC(=O)O)NC(=O)[C@H](CS)NC(=O)Cc1ccccc1 [1042.22] (PhAc-CDF[dP]-NH2),46.9
14,CC(C)C[C@H](NC(=O)Cc1ccccc1)C(=O)N[C@@H](CC(=O)O)C(=O)N[C@@H](Cc1ccc(O)cc1)C(=O)N1CCOCC1 [1045.02] (PhAc-Leu-Asp-Tyr-Morpholide),313
15,CC(C)C[C@H](NC(=O)Cc1ccccc1)C(=O)N[C@@H](CC(=O)O)C(=O)N[C@@H](Cc1ccccc1)C(=O)N1CCC(CC(=O)O)CC1 [1190.02],591

# Same assay, conditions: compared with standard 10-mer of SEQ ID NO:3
row,SMILES,VLA-4 binding inhibition compared in words
1,CC(C)C[C@H](NC(=O)[C@@H](N)Cc1ccccc1)C(=O)N[C@@H](CC(=O)O)C(=O)N[C@@H](Cc1ccccc1)C(=O)N1CCC[C@@H]1C(N)=O [Compound ID No. 1092.01] (H-FLDF[dP]-NH2),binding inhibition better than that of the compound of SEQ ID NO:3
2,"CCCCCCCCCCCCCCCCCCNC(=O)CCCCCNC(=O)[C@@H]1CCCN1C(=O)[C@H](Cc1ccccc1)NC(=O)[C@H](CC(=O)O)NC(=O)[C@H](CC(C)C)NC(=O)Cc1ccccc1 [Compound ID No. 1068.01, phenylacetyl-Leu-Asp-Phe-Pro-NH(CH2)5 C(O)NHC18 H37] (PhAc-LDFP[Ahx]-NHOctadecyl)",binding inhibition similar to that exhibited by the standard 10-mer compound

# Same assay, conditions: relative to SEQ ID NO:3 = 1; potency before the prodrug compound is enzymatically converted to an active form
row,SMILES,Relative Potency (prodrug compound)
1,CC(C)C[C@H](NC(=O)Cc1ccccc1)C(=O)N[C@@H](CC(=O)OCC(=O)OCc1ccccc1)C(=O)N[C@@H](Cc1ccccc1)C(=O)N1CCC[C@@H]1C(N)=O [1067.01] (PhAc-LD(X7)F[dP]-NH2),.97
2,CCCCCCCCCCOC(=O)C[C@H](NC(=O)[C@H](CC(C)C)NC(=O)Cc1ccccc1)C(=O)N[C@@H](Cc1ccccc1)C(=O)N1CCC[C@@H]1C(N)=O [1068.09] (PhAc-LD(ODecyl)F[dP]-NH2),0
3,CCOC(=O)C[C@H](NC(=O)[C@H](CC(C)C)NC(=O)Cc1ccccc1)C(=O)N[C@@H](Cc1ccccc1)C(=O)N1CCC[C@@H]1C(N)=O [1190.01] (PhAc-LD(OEt)F[dP]-NH2),0
